What all share (assay type): cell-based
One test concerns the target T1, human MC4 receptor (Homo sapiens, UniProt P32245).
T1 construct: expressed in transfected cells; host or cells: FreeStyle 293-F cells (transient, electroporation)
Briefly: Human MC4 receptor activation, cAMP production in cells transiently expressing the receptor. The note with it: FreeStyle 293-F cells expressing human MC4 receptor, α-MSH maximum = 100%. An excerpt: (§1) (1) Construction of Human MC Receptor-Expressing Vector
(§2) A human MC4 receptor gene (GenBank Accession No.: NM_005912.2), a human MC1 receptor gene (GenBank Accession No.: NM_002386.3), or a human MC3 receptor gene (GenBank Accession No.: NM_019888.3) was introduced into an expression vector pcDNA™ 3.1N/V5-His TOPO (registered trademark) (Thermo Fisher Scientific Inc).
(§3) (2) Construction of Cells Transiently Expressing Human MC Receptor
(§4) An expression vector for a human MC4, MC1, or MC3 receptor was introduced into FreeStyle™ 293-F cells (Thermo Fisher Scientific Inc., product number: R790-07). For the introduction, electroporation was employed. That is, 1×10^7 FreeStyle™ 293-F cells were suspended in 80 μL of an Electroporation Buffer (Thermo Fisher Scientific Inc., product number: B201-100), and 20 μg of the expression vector was added thereto. The resultant was put into a cuvette (OC-100 Processing Assembly, MaxCyte, Inc.) and electroporated with MaxCyte STX (registered trademark) (MaxCyte, Inc.). The cells were cultured for a day, suspended in a Cell Banker (registered trademark) 1 (TAKARA BIO INC. or JUJI FIELD Inc., product number: BLC-1), and stored frozen until they were used.
(§5) (3) Measurement of Amount of cAMP Production
(§6) Measurement was carried out by using a LANCE (registered trademark) Ultra cAMP Kit (PerkinElmer, Inc.) in accordance with the attached instructions. That is, after dissolution in DMSO, the test compound (a final concentration of 1 pM to 30 μM) diluted with an assay buffer (Hank's balanced salt solution, 5 mM 4-(2-hydroxyethyl)-1-piperazineethanesulfonic acid (HEPES), 0.5 mM 3-isobutyl-1-methylxanthine (IBMX), 0.1% bovine serum albumin, pH 7.4), or α-MSH (Bachem Inc., a final concentration of 1 pM to 30 μM) was added to OptiPlate-384 (PerkinElmer, Inc.). Furthermore, the suspension of the cells transiently expressing the human MC4, MC1, or MC3 receptor prepared using the assay buffer was added thereto at 1,000 cells/well, and then left to stand at room temperature for about 1 hour. Thereafter, an Eu-cAMP tracer solution and an ULight™-anti-cAMP solution were added thereto, and then the resulting solution was left to stand at room temperature for about 1 hour. The amount of cAMP was calculated using EnVision (registered trademark) (PerkinElmer Inc.).
(§7) For the agonistic activity, the efficacy (EC50 (μM)) was calculated by a non-linear regression method with a Sigmoid-Emax model, by defining the maximum reaction using α-MSH as 100% and the reaction using the vehicle alone as 0%, respectively.
(In general: Cyclic AMP is a second messenger, typically raised through Gs and lowered through Gi signalling.)

For another test, the target named is T2, rat MC4 receptor (Rattus norvegicus, UniProt P70596).
T2 construct: expressed in transfected cells; host or cells: FreeStyle 293-F cells (transient, electroporation)
Description: Rat MC4 receptor activation, cAMP production in cells transiently expressing the receptor. As to conditions: FreeStyle 293-F cells expressing rat MC4 receptor, α-MSH maximum = 100%.
From the text: (1) Construction of Rat MC4 Receptor-Expressing Vector
A rat MC4 receptor gene (GenBank Accession No.: NM_013099.3) was introduced into an expression vector pcDNA™ 3.1N/V5-His TOPO (registered trademark) (Thermo Fisher Scientific Inc.).
(2) Construction of Cells Transiently Expressing Rat MC4 Receptor
as §4, with “rat MC4” for “human MC4, MC1, or MC3”, “Inc.).” for “Inc., product number: R790-07).”, “electroporation buffer” for “Electroporation Buffer”, “Inc.),” for “Inc., product number: B201-100),”, “Inc.),” for “Inc., product number: BLC-1),”
as §5
Measurement was carried out in accordance with the attached instructions, using a LANCE (registered trademark) Ultra cAMP Kit (PerkinElmer, Inc.). That is, after dissolution in DMSO, the test compound (a final concentration of 1 pM to 30 μM) diluted with an assay buffer (Hank's balanced salt solution, 5 mM HEPES, 0.5 mM IBMX, 0.1% bovine serum albumin, pH 7.4), or α-MSH (Bachem Inc., a final concentration of 1 pM to 30 μM) was added to OptiPlate-384 (PerkinElmer, Inc.). Furthermore, the suspension of the cells transiently expressing the rat MC receptor that was prepared using the assay buffer was added thereto at 1,000 cells/well, and then left to stand at room temperature for about 1 hour. Thereafter, an Eu-cAMP tracer solution and an ULight™-anti-cAMP solution were added thereto, and the resulting solution was left to stand at room temperature for about 1 hour. The amount of cAMP was calculated using EnVision (registered trademark) (PerkinElmer Inc).
For the agonistic activity, an efficacy (EC50 (μM)) was calculated by a non-linear regression method with a Sigmoid-Emax model, by defining the maximum reaction using α-MSH as 100% and the reaction using a vehicle alone as 0%, respectively.

A further test deals with T3, human MC1 receptor (Homo sapiens, UniProt Q01726).
T3 construct: expressed in transfected cells; host or cells: FreeStyle 293-F cells (transient, electroporation)
Description: Human MC1 receptor activation, cAMP production in cells transiently expressing the receptor. As to conditions: FreeStyle 293-F cells expressing human MC1 receptor, α-MSH maximum = 100%.
From the text: as §1, §2, §3, §4, §5, §6, §7

This note sets out measurements from patent US10710988B2, “Piperazine derivative” (Astellas Pharma Inc., priority 2016, dated 2020).

What is called EC50 is the concentration that produces a half-maximal response. Low values mean an effect from little substance, high ones a need for much substance.

T2 sequence (P70596 whole entry): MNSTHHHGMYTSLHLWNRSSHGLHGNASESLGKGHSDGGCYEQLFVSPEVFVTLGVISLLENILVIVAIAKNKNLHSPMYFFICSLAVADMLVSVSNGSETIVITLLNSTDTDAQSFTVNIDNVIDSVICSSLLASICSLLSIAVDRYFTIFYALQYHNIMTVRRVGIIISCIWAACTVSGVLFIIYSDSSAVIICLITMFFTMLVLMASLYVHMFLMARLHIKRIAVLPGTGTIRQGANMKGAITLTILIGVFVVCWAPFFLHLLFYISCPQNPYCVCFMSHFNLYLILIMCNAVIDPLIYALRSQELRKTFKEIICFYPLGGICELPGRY
T1 sequence (P32245 whole entry): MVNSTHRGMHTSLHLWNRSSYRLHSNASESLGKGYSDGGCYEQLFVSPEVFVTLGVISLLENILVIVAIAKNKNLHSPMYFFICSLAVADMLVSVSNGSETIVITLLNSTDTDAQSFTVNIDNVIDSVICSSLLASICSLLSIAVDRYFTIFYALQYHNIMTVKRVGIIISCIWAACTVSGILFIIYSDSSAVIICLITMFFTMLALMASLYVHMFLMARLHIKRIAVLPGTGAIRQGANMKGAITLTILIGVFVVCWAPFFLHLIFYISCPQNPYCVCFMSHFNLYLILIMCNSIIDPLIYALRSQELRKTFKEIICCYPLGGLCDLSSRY
T3 sequence (Q01726 whole entry): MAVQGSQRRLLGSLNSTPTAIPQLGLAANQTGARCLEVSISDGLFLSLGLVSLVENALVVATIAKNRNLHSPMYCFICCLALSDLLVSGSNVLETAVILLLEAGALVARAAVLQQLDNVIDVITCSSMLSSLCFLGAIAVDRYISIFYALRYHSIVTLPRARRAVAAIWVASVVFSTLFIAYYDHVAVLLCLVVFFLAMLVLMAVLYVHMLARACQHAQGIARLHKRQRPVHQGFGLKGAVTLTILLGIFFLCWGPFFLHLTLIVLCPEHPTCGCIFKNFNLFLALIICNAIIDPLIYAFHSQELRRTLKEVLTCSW

In the case of `CC(=O)N[C@@H](CC(C)(C)C)C(=O)N1C[C@H](C)N(C(=O)[C@@H]2CN(C(C)(C)C)C[C@H]2c2ccc(F)cc2F)C[C@H]1C.Cl` [Example 4, N-{(2S)-1-[(2R,5S)-4-{[(3 S,4R)-1-tert-butyl-4-(2,4-difluorophenyl)pyrrolidin-3-yl]carbonyl}-2,5-dimethylpiperazin-1-yl]-4,4-dimethyl-1-oxopentan-2-yl}acetamide monohydrochloride], the figures for the EC50 on human MC4 receptor, at rat MC4 receptor and at human MC1 receptor were 0.0068 µM, 0.002 µM and 1 µM, respectively.

On to `CC(=O)N[C@@H](CC(C)C)C(=O)N1CCN(C(=O)[C@@H]2CN(C(C)(C)C)C[C@H]2c2ccc(Cl)cc2F)C[C@H]1C` [Example 5], for which the concentration giving a half-maximal response (EC50) on human MC4 receptor stood at 0.006 µM; on rat MC4 receptor it was 0.0033 µM; at human MC1 receptor, 0.71 µM.

As for `CC(=O)N[C@H](C(=O)N1CCN(C(=O)[C@@H]2CN(C(C)(C)C)C[C@H]2c2ccc(F)cc2F)[C@@H](C)C1)C1CCCCC1.Cl` [Example 6, N-{(1S)-2-[(3S)-4-{[(3S,4R)-1-tert-butyl-4-(2,4-difluorophenyl)pyrrolidin-3-yl]carbonyl}-3-methylpiperazin-1-yl]-1-cyclohexyl-2-oxoethyl}acetamide monohydrochloride], the values for the EC50 on human MC4 receptor, at rat MC4 receptor and at human MC1 receptor were 0.019 µM, 0.016 µM and 2.6 µM, respectively.

`CC(=O)N[C@@H](CC(C)(C)C)C(=O)N1CCN(C(=O)[C@@H]2CN(C(C)(C)C)C[C@H]2c2ccc(F)cc2F)[C@@H](C)C1.Cl` [Example 8]: the values for the EC50 at human MC4 receptor, at rat MC4 receptor and at human MC1 receptor were 0.01 µM, 0.0047 µM and 1.7 µM, respectively.

Regarding `CC(=O)N[C@@H](CC(C)(C)C)C(=O)N1C[C@H](C)N(C(=O)C2CN(C(C)(C)C)CC2c2ccc(F)cc2)C[C@H]1C.Cl` (stereo partly drawn) [Example 11], the 50% effective concentration (EC50) at human MC4 receptor worked out at 0.011 µM; at rat MC4 receptor it was 0.01 µM; at human MC1 receptor, 1.6 µM.
